# Key:
# [1] = system: synthetic peptide (H3) corresponding to a portion (long alpha helix) of the stem portion; conditions: mouse, in vivo, ip
# [2] = system: LAH binding monoclonal antibody (#2, #4 and #5); experiment: Binding capacity of antibody to LAH epitope, order of formalin treatment; conditions: FIG. 15; H3N2 strain X31; formalin treatment after (Post-fix) or before (Pre-fix) the acidic treatment
substance,measurement,setting,value
"membrane fusion-type H3N2 HA split vaccine: HA split vaccine of H3N2 influenza virus (strain X31) subjected to acidic treatment (pH 5.0), then formalin treatment",titer of the anti-LAH antibody in the sera,[1],higher titer of the anti-LAH antibody than the membrane fusion-type split vaccine (Pre-fix)
same,binding of the LAH binding monoclonal antibody to the vaccine,[2],more strongly than to the vaccine (Pre-fix)

# Source: patent US12059462B2, “Composition containing influenza vaccine” (priority 2018, dated 2024)
